Results: patent US20230063100A1, “VETERINARY ANTI-PROLACTIN COMPOSITION FOR RUMINANTS USED BY INTRAMAMMARY ADMINISTRATION” (Ceva Santé Animale, priority 2020, published 2023)

Key:
dairy cow [1] = test: Field-controlled study (n=106), IM route, decrease of milk production; type: in vivo
Experimental: Extrapolation of the dose-effect relationship, with an IM dose of 7.5 μg/kg gave a predicted effect on milk production reduction of −43%.

[2] = Blood calcium concentration after IM cabergoline 5.6 mg/cow (previous studies); type: in vivo; conditions: versus negative control group
Experimental: Said studies were conducted in comparison versus a negative control group, and blood calcium decrease was monitored and well identified: A calcium decrease was observed as soon as 2 to 3 hours post-treatment, maximal between 6 and 12 hours and return to normal after 24 hours.
It is important to note that, in the study of example 2, the benefit regarding a less decrease of blood calcium concentration was obtained, despite a less quantity of calcium supplied by food, when compared to the IM studies 1 and 2. In these last 2 IM studies, 150 g of calcium/day/cow was provided through a total or partial mixed ration, whereas in the IMM study of example 2 only 50 g of calcium was provided via the concentrate (7 kg/day/cow at 0.7% of Ca) and a remaining part via the hay given ad libidum. Although the exact quantity of Ca provided by the hay was unknown, it was surely less than in the 2 IM studies, because, • i) the content of calcium in the hay is generally lower than concentrates, usually around 0.3% • ii) the actual hay dry matter intake could be estimated around 13 to 15 kg for the cows included in example 2

dairy cow [3] = test: Inter-teat perimeter (ITP, udder engorgement) at dry-off, IMM study (Example 2); type: in vivo
Experimental: 10 lactating cows (9 Prim'holstein and 1 Brown Swiss) were included in this study. […] Animal had free access to water and hay throughout the study. Each cow was given 7 kg/day of an antibiotic free concentrate feed for lactating cow until D0 dry off. After dry-off each cow was given 7 kg/day of an antibiotic free concentrate for growing cattle. The composition of concentrate is given hereafter: At D0 dry-off, an abrupt milking cessation was performed. The inter-teat perimeter (ITP) was considered as a proxy of udder volume and engorgement, and was measured before treatment udder, both before and after milking, and then evenly after treatment until 9 days post-treatment.

dairy cow [4] = test: Previous IM dose-effect study of cabergoline on milk production reduction (comparative); type: in vivo; conditions: extrapolation of the dose-effect relationship to an IM dose of 7.5 μg/kg
From the text: The obtained results are the following:

[5] = Pharmacokinetics of cabergoline in plasma after IM administration, 5.6 mg/cow (comparative study); type: in vivo; conditions: bovine, n=6, plasma
[6] = Pharmacokinetics of cabergoline in plasma after IMM administration (Example 2.2); type: in vivo, cow; conditions: female, Prim'holstein and Brown Swiss, bovine, 5.4 mg/udder, n=5, plasma
From the text: (§1) 10 lactating cows (9 Prim'holstein and 1 Brown Swiss) were included in this study.

[7] = Blood calcium concentration after IMM cabergoline at dry-off (Example 2.3); type: in vivo, cow
From the text: as §1
No feed restriction was put in place within the 3 weeks preceding the D0 dry-off and after. Animal had free access to water and hay throughout the study. Each cow was given 7 kg/day of an antibiotic free concentrate feed for lactating cow until D0 dry off. After dry-off each cow was given 7 kg/day of an antibiotic free concentrate for growing cattle.

[8] = system: Prim'holstein lactating cows; test: Cabergoline effect by intramammary (IMM) route on milk production, milking continuation context (Example 1); type: in vivo; conditions: IMM 1.34 mg/quarter in all 4 quarters (5.4 mg/cow, ~7.5 μg/kg) after evening milking D4; n=5; printed as minus 6 L
Experimental: The cabergoline composition is a solution comprising cabergoline with dimethyl sulfoxide and medium-chain triglycerides, as excipients.
5 Prim'holstein lactating cows were included in the study, with the following characteristics: • Multiparous: parity 2 to 4 • Daily milk yield (L): 17.4+/−2.8 • Days in milk (d): 251+/−51 • Body weight (kg): 686+/−29
Cabergoline was administered as an oily solution as described above, with an intramammary cannula inserted into the teat canal and fitted to the tip of a syringe containing the solution. A volume of 10 mL was directly deposited into the udder cistern of each quarter.
Cows were milked twice a day, morning and evening, at around 07 am and 05 pm respectively.
Milk production (morning milking) was measured during the days before (baseline) and after treatment.
The 5 cows were treated with a dose 1.34 mg/quarter in all 4 quarters (total dose 5.4 mg/cow, corresponding to ˜7.5 μg/kg when expressed according to kg body weight, after evening milking (D4), i.e. 15-20 minutes after the end of milking.

dairy cow [9] = test: Delta ITP at dry-off, IM study with the same total dose (comparative); type: in vivo; conditions: same total dose by IM route, n=130

time of return of blood calcium to normal [2]: > 24 h
AUC ([5]; read-out: AUCo-inf, mean (sd)): 2.49 ng·h/mL
Cmax ([5]; read-out: Cmax, mean (sd)): 0.15 ng/mL
MRT ([5]; read-out: MRT, mean (sd)): 22.7 h
Tmax ([5]; read-out: Tmax, mean (sd)): 3 h
AUC ([6]; read-out: AUCo-inf, mean (sd)): 4.75 ng·h/mL
Cmax ([6]; read-out: Cmax, mean (sd)): 0.114 ng/mL
MRT ([6]; read-out: MRT, mean (sd)): 36.3 h
Tmax ([6]; read-out: Tmax, mean (sd)): 8.4 h
decrease of blood calcium concentration in comparison with control cows, mean ([7]; IMM 1.34 mg/quarter in all 4 quarters, +6 hours time point only): -0.2 mmol/L
blood calcium concentration change at other time points ([7]; IMM, +3 h, +12 h, +24 h and onward): No decrease
Structure (SMILES): C=CCN1C[C@H](C(=O)N(CCCN(C)C)C(=O)NCC)C[C@@H]2c3cccc4[nH]cc(c34)C[C@H]21 [cabergoline, N-[3-(dimethylamino)propyl]-N-[(ethylamino)carbonyl]-6-(2-propenyl)-8g-ergoline-8-carboxamide]
decrease of milk production, treated against negative controlled cows (dairy cow [1]): around −40%
ITP of treated cows versus control after dry-off (dairy cow [3]; IMM 1.34 mg/quarter in all 4 quarters, first 48 hours after treatment, FIG. 2): increased less than control
Mean ΔITP at +24 h after treatment (dairy cow [3]; IMM study, 1.34 mg/quarter in all 4 quarters at D0 dry-off, n=5): 8.3 cm
Mean ΔITP before/after milking, before treatment (dairy cow [3]; IMM study, cabergoline group n=5, baseline before treatment): 13.1 cm
predicted effect on milk production reduction (dairy cow [4]): −43%
drop of milk production at the next morning milking (D5), mean [8]: 6 L
Mean ΔITP at +24 h after treatment (dairy cow [9]): 9.2 cm
